Experimental findings from PMC11557217, “Insights into the Functioning of the D-amino Acid Transaminase from Haliscomenobacter Hydrossis via a Structural and Spectral Analysis of its Complex with 3-Aminooxypropionic Acid” (Acta Naturae, 2024) are described below.

In test [1] the target is T1, TA_Halhy (Haliscomenobacter hydrossis, UniProt F4KWH0).
T1 construct: gene Halhy_2446; PLP holoenzyme; homodimer
T1 sequence (F4KWH0 1-281): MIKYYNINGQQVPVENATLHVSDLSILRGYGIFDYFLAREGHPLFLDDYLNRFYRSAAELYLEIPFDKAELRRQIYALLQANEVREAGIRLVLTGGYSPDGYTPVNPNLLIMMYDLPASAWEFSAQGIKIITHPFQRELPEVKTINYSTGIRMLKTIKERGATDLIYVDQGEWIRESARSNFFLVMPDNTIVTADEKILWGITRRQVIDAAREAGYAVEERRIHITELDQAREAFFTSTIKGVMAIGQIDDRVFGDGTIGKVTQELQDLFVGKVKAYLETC
Briefly: X-ray crystal structure ([…] Å, co-crystallization); UV/Vis spectra of oxime formation. To be noted: covalent: forms oxime with the PLP cofactor; crystals at pH 5.5, 12 mM compound, 6 mM PLP; spectra at pH 8.0, 25 °C; carboxyl group in O-pocket; reversible. The class given is binding.

For test [2], the target named is T1, TA_Halhy. The test can be described thus: transamination, lactate dehydrogenase-coupled NADH assay; substrate inhibition curve. In kind it is biochemical. To be noted: 2.5 mM pyruvate, 30 μM PLP, 50 mM potassium phosphate, pH 8.0, 40 °C.
Test [3] deals with T1, TA_Halhy. The test can be described thus: UV/Vis spectra and activity restoration of the apoenzyme on adding PLP. The note with it: 50 mM potassium phosphate, pH 8.0; covalent internal aldimine in the holoenzyme. The class given is biochemical.
Test [4] has as its target T1, TA_Halhy. Briefly: transamination; substrate inhibition curve. In kind it is biochemical. The note with it: 40 mM D-alanine, 30 μM PLP, 50 mM potassium phosphate, pH 8.0, 40 °C.

On to `NOCCC(=O)O` [3-aminooxypropionic acid, 3-(aminooxy)propanoic acid], for which, in test [1], the “X-ray crystal structure (1.70 Å, co-crystallization); UV/Vis spectra of oxime fo” value is “the structure of the TA_Halhy complex has been solved and refined”.

Take `N[C@H](CCC(=O)O)C(=O)O` [D-glutamic acid]: in test [2], the “transamination, lactate dehydrogenase-coupled NADH assay; substrate inhibition c” value was “TA_Halhy is inhibited by D-glutamic acid and α-ketoglutarate at substrate concentrations as low as millimolars”.

For `Cc1ncc(COP(=O)(O)O)c(C=O)c1O` [pyridoxal 5'-phosphate], the “UV/Vis spectra and activity restoration of the apoenzyme on adding PLP” value in test [3] is “Holoenzyme was formed, and TA_Halhy activity was fully restored, after PLP was added”. For the compound `O=C(O)CCC(=O)C(=O)O` [α-ketoglutarate], the “transamination; substrate inhibition curve” value in test [4] was “TA_Halhy is inhibited by D-glutamic acid and α-ketoglutarate at substrate concentrations as low as millimolars”.
